Source: patent US20260327264A1, “PEPTIDE INHIBITORS OF INTERLEUKIN-23 RECEPTOR” (Zealand Pharma A/S, priority 2023, published 2026)
Like-named read-outs stand apart in the source and are kept apart here. *1 amine or outer side, *2 acyl side, *3 side chain or, on linkers, in order; H or OH if unused. Where a SMILES comes first, the peptide text is derived from it. Bridges are numbered along the chain shown (N, C = ends). [ ]: non-standard residue; d: D form. 2Nal = N[C@@H](Cc1ccc2ccccc2c1)C(=O)O; AEF = NCCOc1ccc(C[C@H](N)C(=O)O)cc1; X1 = O=C(Cc1ccc(CN[*:1])cc1)[*:2]; 3Pal = N[C@@H](Cc1cccnc1)C(=O)O; αMeL = CC(C)C[C@](C)(N)C(=O)O; CH2COCH2 = O=C(C[*:1])C[*:2]; 3Amb = NCc1cccc(C(=O)O)c1; Dab = NCC[C@H](N)C(=O)O

How the values were obtained:
[1] = system: IL-23 mediated STAT3 signalling (DB cells); test: Functional inhibition of IL-23 mediated STAT3 signalling (phospho-STAT3 Tyr705) in DB cells; format: cell-based, human; settings: for hIL-23 (pSTAT3) antagonist % inhibition: Table 3-2, maximal inhibitory response, EC80 of hIL-23
From the text: Upon binding of IL-23, the IL-23R forms a heterodimer signalling complex together with IL-12R β1, which through the JAK2/STAT3 pathway promotes phosphorylation of STAT3 to form phospho-STAT3.
For compounds tested in this assay, the response was normalized relative to control values to calculate the IC50 and maximal inhibitory response from a concentration response curve of the compound in presence of a fixed concentration of human IL-23.
The assay procedure was as follows. […] Following preincubation of the DB cells with inhibitor for 15 min in a cell incubator (37° C., 5% CO2), 20 μL of the prepared 3× the EC80 of hIL-23 solution was added to each well and incubated for 90 min in a cell incubator (37° C., 5% CO2). For some wells buffer only or IL-23 only corresponding to the EC80 was added to obtain readouts needed for normalization. To terminate the assay, the plate was spun at 1000 G for 5 min to pellet cells, the supernatant removed using an 8-channel manual pipette, and then added 50 μL/well Complete Lysis Buffer from the MSD STAT3 kit (Cat #K150SVD, Mesoscale) to the cell pellet. To completely lyse cells to release phospho-STAT3 for detection, the plate was shaken for 10 min at room temperature (500 rpm) sealed with aluminium foil and placed at −80° C. for a minimum of 15 min. Detection of the phospho-STAT3 level in the cell lysate from the individual wells was determined using the MSD STAT3 kit (Cat #K150SVD, Mesoscale) and read on a Meso QuickPlex SQ 120 plate reader (Mesoscale).
For data analysis raw data counts from the Meso QuickPlex SQ 120 plate reader were normalized relative to the response by the EC80 of hIL-23 alone (no compound added) and the buffer level.

human IL-23R = target: T1, human IL-23R (Homo sapiens, UniProt Q5VWK5); test: Binding assay: displacement of fluorophore (TAMRA)-labelled reference compound from human IL-23R (BRET, Nluc-IL23R fusion protein membranes); settings: for Emax: read-out: % displacement (hIL-23R binding)
T1 construct: Nanoluc luciferase (Nluc); secretion signal encoded by the plasmid (not specified); expressed in transfected cells; crude membranes used in the assay
T1 sequence (Q5VWK5 22-629): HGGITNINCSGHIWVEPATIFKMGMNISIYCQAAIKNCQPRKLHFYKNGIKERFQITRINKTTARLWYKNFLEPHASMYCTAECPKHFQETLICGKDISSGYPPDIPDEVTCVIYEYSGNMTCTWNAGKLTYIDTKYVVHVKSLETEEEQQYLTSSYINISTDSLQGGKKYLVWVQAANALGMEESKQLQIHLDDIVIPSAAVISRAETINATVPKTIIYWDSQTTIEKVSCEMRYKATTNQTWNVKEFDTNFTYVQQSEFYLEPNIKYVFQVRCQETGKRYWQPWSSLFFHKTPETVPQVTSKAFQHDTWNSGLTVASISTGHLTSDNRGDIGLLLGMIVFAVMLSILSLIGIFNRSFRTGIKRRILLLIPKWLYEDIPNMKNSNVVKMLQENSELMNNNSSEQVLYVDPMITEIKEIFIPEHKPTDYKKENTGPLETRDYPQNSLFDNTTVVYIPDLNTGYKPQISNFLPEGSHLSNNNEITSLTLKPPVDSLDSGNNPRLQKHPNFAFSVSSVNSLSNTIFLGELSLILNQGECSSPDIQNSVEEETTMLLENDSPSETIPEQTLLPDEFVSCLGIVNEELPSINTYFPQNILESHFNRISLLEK

[2] = Table 3-2, EC80 of hIL-23, read-out: hIL-23 (pSTAT3) antagonist IC50

SMILES	IC50 [1, 2] [nM]	hIL-23 (pSTAT3) antagonist % inhibition [1] [%]	Emax (human IL-23R) [%]	IC50 (human IL-23R) [nM]	IC50 ([1]; EC80 of hIL-23, read-out: IC50 (pSTAT3)) [nM]
CC(C)C[C@]1(C)NC(=O)[C@H](Cc2ccc3ccccc3c2)NC(=O)[C@H](Cc2ccc(OCCN)cc2)NC(=O)[C@@H]2CSCC(=O)CSC[C@H](NC(=O)[C@H](CO)NC(=O)c3cccc(c3)CNC(=O)CC[C@@H](C(=O)N[C@H](CCCNC(=N)N)C(N)=O)NC1=O)C(=O)N[C@@H](Cc1c[nH]c3ccccc13)C(=O)N[C@@H](CCC(N)=O)C(=O)N2 [Ref 41, [(3-Aminomethyl)benzoyl](1c)*SC(2a)WQC(2a)[Y(2-aminoethoxy)][2-Nal][2-Me-Leu]E(1c)[{d}R]-[NH2], reference compound] ([3Amb]SCWQC[AEF][2Nal][αMeL]E[dR]-NH2; linker 3-6 via CH2COCH2; lactam N-10)	29	99	110	–	–
CC(=O)N[C@H]1CCCCNC(=O)CC[C@@H](C(=O)N[C@@H](CCCNC(=N)N)C(N)=O)NC(=O)[C@H](CC(C)C)NC(=O)[C@H](Cc2ccc3ccccc3c2)NC(=O)[C@H](Cc2c[nH]c3ccccc23)NC(=O)[C@@H]2CSCC(=O)CSC[C@H](NC(=O)[C@H](CO)NC1=O)C(=O)N[C@@H](Cc1c[nH]c3ccccc13)C(=O)N[C@@H](CCC(N)=O)C(=O)N2 [Ref 18, [Ac]-K(1c)SC(2a)WQC(2a)W[2-Nal]LE(1c)R-[NH2], reference compound] (HELM PEPTIDE1{[ac].K.S.C.W.Q.C.W.[O=C([C@H](Cc1ccc2ccccc2c1)N[*:1])[*:2]].L.E.R.[am]}|CHEM1{[O=C(C[*:1])C[*:2]]}$PEPTIDE1,PEPTIDE1,2:R3-11:R3|PEPTIDE1,CHEM1,4:R3-1:R1|PEPTIDE1,CHEM1,7:R3-1:R2$$$V2.0)	18	97	103	–	–
CC(C)C[C@]1(C)NC(=O)[C@H](Cc2ccc3ccccc3c2)NC(=O)[C@H](Cc2ccc(OCCN)cc2)NC(=O)[C@@H]2CSCC(=O)CSC[C@H](NC(=O)[C@H](CO)NC(=O)Cc3ccc(cc3)CNC(=O)CC[C@@H](C(=O)N[C@@H](CCN)C(=O)N[C@@H](Cc3cccnc3)C(N)=O)NC1=O)C(=O)N[C@@H](Cc1c[nH]c3ccccc13)C(=O)N[C@@H](CCC(N)=O)C(=O)N2 [Ref 120, [4-Aminomethyl-phenylacetyl](1c)*SC(2a)WQC(2a)[Y(2-aminoethoxy)][2-Nal][2-Me-Leu]E(1c)[Dab][3-(3-Pyridyl)-Ala]-[NH2], reference compound] ([X1]SCWQC[AEF][2Nal][αMeL]E[Dab][3Pal]-NH2; linker 3-6 via CH2COCH2; lactam N-10)	–	101	94	–	–
CC(C)C[C@@H]1NC(=O)[C@H](Cc2c[nH]c3ccccc23)NC(=O)[C@H](Cc2c[nH]c3ccccc23)NC(=O)[C@@H]2CSCC(=O)CSC[C@H](NC(=O)[C@H](CO)NC(=O)[C@@H](NC(=O)[C@@H](N)CC(=O)O)CCC(=O)NCCCC[C@@H](C(=O)N[C@@H](CCCNC(=N)N)C(N)=O)NC1=O)C(=O)N[C@@H](Cc1c[nH]c3ccccc13)C(=O)N[C@@H](CCC(N)=O)C(=O)N2 [Ref 4, H-DE(1c)SC(2a)WQC(2a)WWLK(1c)R-[NH2], reference compound] (HELM PEPTIDE1{D.E.S.C.W.Q.C.W.W.L.K.R.[am]}|CHEM1{[O=C(C[*:1])C[*:2]]}$PEPTIDE1,PEPTIDE1,2:R3-11:R3|PEPTIDE1,CHEM1,4:R3-1:R1|PEPTIDE1,CHEM1,7:R3-1:R2$$$V2.0)	850	87	100	–	–
CNC(=O)[C@H](Cc1cccnc1)NC(=O)[C@H](CCN)NC(=O)[C@@H]1CCC(=O)NCc2ccc(cc2)CC(=O)N[C@@H](C)C(=O)N[C@H]2CCC(=O)NCC[C@H](NC(=O)[C@H](CCC(N)=O)NC(=O)[C@H](Cc3c[nH]c4ccccc34)NC2=O)C(=O)N[C@@H](Cc2ccc(N3CCOCC3)cc2)C(=O)N[C@@H](Cc2ccc3ccccc3c2)C(=O)NC(C)(C)C(=O)N1 [Compound 51, [4-aminomethyl-phenylacetyl](1c)*AE(2c)WQ[Dab](2c)[F(4-morpholine)][2Nal][Aib]E(1c)[Dab][3-(3-Pyridyl)-alanyl]-[NHMe]]	0.38	96	105	0.073	–
CC(C)C[C@]1(C)NC(=O)[C@H](Cc2ccc3ccccc3c2)NC(=O)[C@H](Cc2ccc(OCCN)cc2)NC(=O)[C@@H]2CCNC(=O)CC[C@H](NC(=O)[C@H](CO)NC(=O)Cc3ccc(cc3)CNC(=O)CC[C@@H](C(=O)N[C@@H](CCN)C(N)=O)NC1=O)C(=O)N[C@@H](Cc1c[nH]c3ccccc13)C(=O)N[C@@H](CCC(N)=O)C(=O)N2 [Ref 125, [4-Aminomethyl-phenylacetyl](1c)*SE(2c)WQ[Dab](2c)[Y(2-aminoethoxy)][2-Nal][2-Me-Leu]E(1c)[Dab]-[NH2], reference compound]	21	98	101	–	–
CC(C)C[C@]1(C)NC(=O)[C@H](Cc2ccc3ccccc3c2)NC(=O)[C@H](Cc2ccc(OCCN)cc2)NC(=O)[C@@H]2CCNC(=O)CC[C@H](NC(=O)[C@H](CO)NC(=O)Cc3ccc(cc3)CNC(=O)CC[C@@H](C(=O)N[C@@H](CCN)C(=O)N[C@@H](Cc3cccnc3)C(=O)N[C@H](Cc3c[nH]cn3)C(N)=O)NC1=O)C(=O)N[C@@H](Cc1c[nH]c3ccccc13)C(=O)N[C@@H](CCC(N)=O)C(=O)N2 [Compound 10, [4-Aminomethyl-phenylacetyl](1c)*SE(2c)WQ[Dab](2c)[Y(2-aminoethoxy)][2-Nal][2-Me-Leu]E(1c)[Dab][3-(3-Pyridyl)-Ala][{d}H]-[NH2]] ([X1]SEWQ[Dab][AEF][2Nal][αMeL]E[Dab][3Pal][dH]-NH2; lactam 3-6, N-10)	0.038	99	91	–	0.038
CC(C)C[C@]1(C)NC(=O)[C@H](Cc2ccc3ccccc3c2)NC(=O)[C@H](Cc2ccc(OCCN)cc2)NC(=O)[C@@H]2CSCC(=O)CSC[C@H](NC(=O)[C@H](CO)NC(=O)Cc3ccc(cc3)CNC(=O)CC[C@@H](C(=O)N[C@@H](CO)C(N)=O)NC1=O)C(=O)N[C@@H](Cc1c[nH]c3ccccc13)C(=O)N[C@@H](CCC(N)=O)C(=O)N2 [Ref 81, [4-Aminomethyl-phenylacetyl](1c)*SC(2a)WQC(2a)[Y(2-aminoethoxy)][2-Nal][2-Me-Leu]E(1c)S-[NH2], reference compound]	21	95	101	–	–
CNC(=O)[C@H](Cc1cccnc1)NC(=O)[C@H](COC)NC(=O)[C@@H]1CCC(=O)NCc2ccc(cc2)CC(=O)N[C@@H](C)C(=O)N[C@H]2CCC(=O)NCC[C@H](NC(=O)[C@H](CCC(N)=O)NC(=O)[C@H](Cc3c[nH]c4ccccc34)NC2=O)C(=O)N[C@@H](Cc2ccc(N3CCOCC3)cc2)C(=O)N[C@@H](Cc2ccc3ccccc3c2)C(=O)NC(C)(C)C(=O)N1 [Compound 53, [4-aminomethyl-phenylacetyl](1c)*AE(2c)WQ[Dab](2c)[F(4-morpholine)][2Nal][Aib]E(1c)[Ser(OCH3)][3-(3-Pyridyl)-alanyl]-[NHMe]]	–	–	102	0.23	–
CNC(=O)[C@H](Cc1cccnc1)NC(=O)[C@H](CCN)NC(=O)[C@@H]1CCC(=O)NCc2ccc(cc2)CC(=O)N[C@@H](C)C(=O)N[C@H]2CCC(=O)NCC[C@H](NC(=O)[C@H](CCC(N)=O)NC(=O)[C@H](Cc3c[nH]c4ccccc34)NC2=O)C(=O)N[C@@H](Cc2ccc(OCCN)cc2)C(=O)N[C@@H](CC2CC2)C(=O)NC(C)(C)C(=O)N1 [Compound 42, [4-Aminomethyl-phenylacetyl](1c)*AE(2c)WQ[Dab](2c)[Y(2-aminoethoxy)][Cyclopropyl-Ala][Aib]E(1c)[Dab][3-(3-Pyridyl)-Ala]-[NHMe]]	–	–	100	12	–
